Measured values: the METLIN SMRT retention time set (Domingo-Almenara et al. 2019)

assay: gradient 5% acetonitrile 3 min, to 50% in 2 min, to 85% in 15 min, held 3 min, 100 µL/min; details: column: Zorbax Extend-C18 2.1 x 50 mm; eluents: water / acetonitrile, 0.1% formic acid
Summary of the method: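 Using water and acetonitrile that each contained 0.1% formic acid, mixtures of ~100 pure standards were separated at 100 μL/min on a Zorbax Extend-C18 column (2.1 × 50 mm, 1.8 μm). The HPLC fed a quadrupole time-of-flight mass spectrometer working in positive and negative ionization mode, with dead and dwell volumes of 40 μL and 900 μL. Data were acquired over 3 months. Retention time was read from computationally picked adduct peaks after manual inspection of each.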

| Compound | RP-LC retention time [s] |
| --- | --- |
| CCOC(=O)c1cc2n(n1)CC(C)(C(=O)NC1CCCC1)N(Cc1cccc(F)c1)C2=O (configuration not stated) | 907 |
| CCOc1ccc(CC(=O)Nc2cc3c(cc2N(C)C)n(C)c(=O)c(=O)n3C)cc1OCC | 763 |
| CCC(C)NC(=O)C1CCN(S(=O)(=O)c2c(C)nn(CC(=O)Nc3ccc(C)cc3)c2C)CC1 (configuration not stated) | 806 |
| CCc1ccccc1S(=O)(=O)N1CCN(c2nc3ccncc3n(C(C)C)c2=O)CC1 | 632 |
| CN1CCN(CCCNC(=O)CN2C(=O)C3CCCCN3c3ccc(C(=O)N(C)C)cc32)CC1 (configuration not stated) | 572 |
| O=C(NCCc1ccccc1)NCC1CCN(Cc2ccco2)CC1 | 562 |
| Cc1nc(-c2ccc3c(c2)n(CC(=O)NC2CCCc4ccccc42)c(=O)n3C(C)C)no1 (configuration not stated) | 912 |
| Cc1noc(C)c1CC(=O)N1CCCCCCNC(=O)[C@@H]2CCCC[C@@H]21 | 739 |
| O=C(Nc1ccc(Cl)cc1)C1CCN(C(=O)c2ncn3c2COC(c2ccccc2)C3)CC1 (configuration not stated) | 859 |
| Cn1cc(CCN2CCN(C(=O)c3ccccc3Br)CC2)c2cccnc21 | 598 |
| O=C(CSc1ccc(N2CCCC(C(=O)NC3CC3)C2)nn1)Nc1ccc(C(F)(F)F)cc1 (configuration not stated) | 729 |
| CC(=O)Nc1ccc(NC(=O)C2CCCN(C(=O)c3cc(-c4ccncc4)n[nH]3)C2)cc1 (configuration not stated) | 566 |
| O=C(CSc1nnc(NC(=O)C2(c3cccs3)CCCC2)s1)c1ccccc1 | 1050 |
| Cn1c(C(=O)NCC2CCCO2)cc2c1CCN(Cc1cccc(F)c1)C2 (configuration not stated) | 618 |
| Cc1nc(-c2cc3ccccc3nc2N2CCN(c3ccccc3)CC2)no1 | 666 |
| CCOc1ccc(C2=NC3(CCN(CC)CC3)NC(c3ccccc3O)C2)cc1 (configuration not stated) | 583 |
| CCC1CCCCN1C(=O)c1cnc2nc(C)ccc2c1Nc1ccc(S(N)(=O)=O)cc1 (configuration not stated) | 589 |
| COCCN1CCC(N2CCCN(C(=O)c3ccc(F)c(Cl)c3)CC2)C1=O (configuration not stated) | 573 |
| Cc1ccc(N2C(=O)SC(N(CC(N)=O)c3ccc(C)cc3)C2=O)cc1 (configuration not stated) | 782 |
| O=C(NCc1csc(-c2ccccc2)n1)C1CCN(S(=O)(=O)c2ccccc2)CC1 | 903 |
| Cc1ccc(N2CC(c3nc(-c4ccc5c(c4)nnn5C)no3)CC2=O)cc1C (configuration not stated) | 880 |
| CCCCN(C)C(=O)CN1C(=O)CCCc2cc(S(=O)(=O)N3CCC(C)CC3)ccc21 | 971 |

| Compound | RP-LC retention time [s] |
| --- | --- |
| O=C(NC1CC1)C1CCN(c2nc3ccc(-c4ccc(F)cc4)nc3s2)CC1 | 878 |
| Cc1cccc2nnc(N3CCN(C(=O)c4cccc(Br)c4)CC3)n12 | 683 |
| O=C(c1ccc2cc[nH]c2c1)N1CCC2(CC1)N=C(c1ccccc1)NO2 | 770 |
| CCc1ccc(N2C=C(C(=O)OC)S(=O)(=O)c3ccccc32)cc1 | 942 |
| CCC(C)NC(=O)N1CCCN(C2=NS(=O)(=O)C(c3cccc(Cl)c3)=C2C)CC1 (configuration not stated) | 837 |
| CCn1ccc(NC(=O)Nc2cc(C)cc(C)c2)n1 | 853 |
| CCc1ccc(S(=O)(=O)N2CCC3(CC2)NCCN=C3NCc2ccc(F)c(Cl)c2)cc1 | 831 |
| CS(=O)(=O)N1CCN(Cc2cc3nc(-c4cccc5[nH]ncc45)nc(N4CCOCC4)c3s2)CC1 | 706 |
| CCOc1ccc(CNC(=O)C2CCN(S(=O)(=O)c3cn(C(C)C)cn3)CC2)cc1OC | 704 |
| CCOc1ccc(CNC(=O)COc2nc(CC)nc3oc(C)c(C)c23)cc1 | 993 |
| O=C(c1ccc(Br)cc1)N1CCc2nc(-c3ccc(Cl)cc3)ncc2C1 | 1160 |
| CCOC(=O)c1[nH]c(C)c(C(=O)N2CCC(CC(=O)N3CCN(C4CCCCC4)CC3)CC2)c1C | 598 |
| CCN1CCN(c2nccc(-c3cnc4nc(-c5ccncc5)nn4c3C)n2)CC1 | 562 |
| CCc1cccc(NC(=O)Cn2c(C)nc3c(sc4nc(-c5ccccc5)ccc43)c2=O)c1 | 1170 |
| CCc1ccc(C(=O)N2CCN(c3nnc4ccccn34)CC2)cc1 | 681 |
| CCC(=O)N1CCc2cc(CNS(=O)(=O)c3ccccc3)ccc21 | 790 |
| Clc1ccc2nc(-c3ccc(N4CCOCC4)cc3)c(Nc3ccc4c(c3)OCO4)n2c1 | 715 |
| O=c1n(Cc2ccccc2)nc2ccc(S(=O)(=O)N3CCCC3)cn12 | 675 |
| COc1ccccc1NC(=O)N1C[C@@H]2CN(S(=O)(=O)c3ccc(C)cc3)C[C@H](C1)O2 | 836 |
| O=C(O)CCNS(=O)(=O)c1ccc(Cl)c(-c2nnc(-c3ccccc3)o2)c1 | 781 |
| C=CCNC(=O)C1CCN(C(=O)Nc2ccc(NC(=O)Nc3ccc(C)cc3C)cc2)CC1 | 728 |
| COc1ccc(-c2noc(C3CCCN3C(=O)c3cc(F)ccc3F)n2)cc1OC (configuration not stated) | 900 |

| Compound | RP-LC retention time [s] |
| --- | --- |
| O=C(COc1ccccc1-c1nnc(-c2ccccc2)o1)NCc1ccco1 | 961 |
| O=C(Nc1ccc2c(c1)OCCO2)c1ccc(-c2ccnc(N3CCCC3)n2)cc1 | 768 |
| CCOC(=O)c1ccc(NC(=O)N(C)Cc2nc3cc(C(=O)N(C)C)ccc3n2C)cc1 | 634 |
| Cc1ccc(NC(=O)C2(C)Oc3cccnc3NC2=O)c(C)c1 (configuration not stated) | 727 |
| O=C(NCCc1ccccc1)C1CCN(C(=O)C2Sc3ccccc3NC2=O)CC1 (configuration not stated) | 740 |
| Cc1cc(=O)n(CC(=O)Nc2ccccc2F)c(N2CCc3ccccc3C2)n1 | 802 |
| O=C(CSCc1nc2cccnc2n1C1CCCCC1)NCCc1ccco1 | 883 |
| CCOC(=O)c1cc(S(=O)(=O)N2CCCC2C(=O)NC2CCCCC2)cn1C (configuration not stated) | 875 |
| CCCCNC(=O)CCC1CCN(c2cc(NC3CC3)ncn2)CC1 | 629 |
| Cc1nc(N2CCCC(C(=O)Nc3ccc(F)cc3)C2)c2c(C)c(C)oc2n1 (configuration not stated) | 910 |
| CCn1nccc1C(=O)N1CCCC1c1cccc(F)c1 (configuration not stated) | 812 |
| COC(=O)c1cnc2nc(C)ccc2c1Nc1ccc(C)c(F)c1 | 696 |
| COC(=O)COc1cc(-c2cccc(Cl)c2)nc2ccc(NC(=O)c3ccco3)cc12 | 886 |
| O=C(CN1CCCc2nc(C3CC3)ncc2C1=O)NCCCN1CCCC1=O | 594 |
| CCc1cccc(NC(=O)Cn2nc3c(Sc4ccccc4)nccn3c2=O)c1 | 1010 |
| Cc1n[nH]c(C)c1CCC(=O)N1CCCn2ccnc2C1C1CCCC1 (configuration not stated) | 559 |
| CCN1C(=O)c2cccnc2Sc2cc(CNC(=O)c3ccc(NC(C)=O)cc3)ccc21 | 654 |
| CC(C)Cc1nc(CNC(=O)c2coc(C3CC3)n2)no1 | 808 |
| COc1ccc(N2CC(c3nc(-c4ccc5c(c4)oc(=O)n5C(C)C)no3)CC2=O)cc1 (configuration not stated) | 915 |
| CCn1c(=O)oc2cc(-c3noc(COc4ccccc4)n3)ccc21 | 1020 |
| Cc1noc(-c2ccc(-n3cnc(C(=O)NCCc4ccccc4)c3)nc2)n1 | 678 |
| Cc1ccc(S(=O)(=O)Nc2cccc(-c3cn4cccc(C)c4n3)c2)cc1 | 674 |

| Compound | RP-LC retention time [s] |
| --- | --- |
| NCC(O)COc1cccc2ccccc12 (configuration not stated) | 679 |
| CN(CCc1noc(-c2ccc(F)cc2)n1)C(=O)Nc1ccc(F)cc1 | 864 |
| CC1=C(c2ccccc2)S(=O)(=O)N=C1N1CCCN(C(=O)NCCC(C)C)CC1 | 818 |
| CN(CC(=O)NC1CCCC1)S(=O)(=O)c1ccc2nc(-c3ccccc3)[nH]c2c1 | 754 |
| COCCN1CCCc2ccc(NC(=O)c3cccc(Br)c3)cc21 | 993 |
| COc1ccc(C(=O)N2CCN(c3cc(C)n4cnnc4n3)CC2)cn1 | 571 |
| Cc1cc(C)n(-c2cc(N3CCCC(C(=O)Nc4cccc(C(F)(F)F)c4)C3)ncn2)n1 (configuration not stated) | 1060 |
| Cc1nc(-c2csc(S(=O)(=O)N3CCCC(C(=O)NCc4ccc(F)cc4)C3)c2)no1 (configuration not stated) | 892 |
| CNC(=O)c1cc(NC)nc2c(Cl)cccc12 | 568 |
| COc1cccc(CC(=O)NC(C)C(=O)Nc2nc3ccccc3[nH]2)c1 (configuration not stated) | 640 |
| Cc1ccc(C)c(-c2csc(Cc3nc(-c4ccc(F)cc4)no3)n2)c1 | 1300 |
| Cc1cccc(C2(O)C(=O)N(Cc3ccc(C#N)cc3)c3ccccc32)c1 (configuration not stated) | 825 |
| O=C(Nc1cc(C(F)(F)F)cc(C(F)(F)F)c1)c1ccc(=O)[nH]n1 | 814 |
| Cc1nc2cccnc2n1C1CCN(C(=O)Nc2ccc(F)cc2)CC1 | 640 |
| Cc1ccc(NC(=O)CN2C(=O)C3CCCCN3c3ccc(S(=O)(=O)N(C)C)cc32)cc1 (configuration not stated) | 943 |
| Cc1nc2cc(-c3noc(Cc4ccc(F)cc4)n3)ccc2o1 | 983 |
| CCCn1ccc2sc(C)c(C(=O)N3CCN(c4ccccc4)CC3)c2c1=O | 849 |
| CCc1noc(NC(C)=O)c1-c1ccc(C)c(S(=O)(=O)NCCc2ccccc2)c1 | 855 |
| CCc1noc(-c2cnc3nc(C)ccc3c2NCCc2ccccc2)n1 | 621 |
| Cc1ccc(Cn2c(=O)n(CCNC(=O)C3CCC3)c3ncccc32)cc1 | 779 |
| O=C1CCCc2cc(S(=O)(=O)N3CCCC3C(=O)N3CCN(c4ccccc4)CC3)ccc2N1 (configuration not stated) | 750 |
